Read-outs that look alike come from different tables or passages of the source.
System: Phytophthora infestans
Type: in vivo
Conditions: for Efficacy (obs.)/ %: percentage disease control relative to untreated plants; for Rating: potato plants, spray 200 l/ha, inoculated 24 hours after treatment, degree of infestation

| SMILES | Efficacy (obs.)/ % (400 g/ha) | Efficacy (obs.)/ % (600 g/ha) | Rating (400 g/ha) | Rating (600 g/ha) | Efficacy (obs.)/ % (5 g/ha) | Efficacy (obs.)/ % (25 g/ha) | Rating (5 g/ha) | Rating (25 g/ha) |
| --- | --- | --- | --- | --- | --- | --- | --- | --- |
| CCCOC(=O)NCCCN(C)C [Compound (II), propyl 3-(dimethylamino)propylcarbamate] | 0% | 18% | 8.3 | 6.8 |  |  |  |  |
| O=C(NCc1ncc(C(F)(F)F)cc1Cl)c1c(Cl)cccc1Cl [Compound (Ia), 2,6-dichloro-N-{[3-chloro-5-(trifluoromethyl)-2-pyridinyl]methyl}benzamide] |  |  |  |  | 48% | 60% | 4.3 | 3.3 |

From patent US7659292B2 (priority 2001, dated 2010)
